Source: PubChem BioAssay AID2060501 (Molecular Pharmacology Branch, DTP, NCI, 2025)

Test system: 282377-053-R-J1-PDC complex spheroids, viability
Experiment: Anticancer human tumor 282377-053-R-J1-PDC patient-derived colon adenocarcinoma cell line growth inhibition [GQUAD]
Details: for IC50: curve of first compound; for viability, T/C: stronger effect = lower value
Outline: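 Tumor cells were grown as complex spheroids with HUVEC endothelial cells and mesenchymal stem cells as stroma. G-quadruplex stabilizers were combined with targeted agents over half-log dilutions from near the clinical Cmax, or from 10 microM.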

[1] = second compound 0.0316 µM, first compound 0.0316 µM
[2] = second compound 0.0316 µM, first compound 0.316 µM
[3] = second compound 0.1 µM, first compound 0.0316 µM
[4] = second compound 0.1 µM, first compound 0.316 µM
[5] = second compound 0.316 µM, first compound 0.0316 µM
[6] = second compound 0.316 µM, first compound 0.316 µM
[7] = second compound 1 µM, first compound 0.0316 µM
[8] = second compound 1 µM, first compound 0.316 µM
[9] = second compound 3.16 µM, first compound 0.0316 µM
[10] = second compound 3.16 µM, first compound 0.316 µM
[11] = second compound 10 µM, first compound 0.0316 µM
[12] = second compound 10 µM, first compound 0.316 µM
[13] = second compound 0.0316 µM, first compound 0.1 µM
[14] = second compound 0.0316 µM, first compound 1 µM
[15] = second compound 0.0316 µM, first compound 3.16 µM
[16] = second compound 0.0316 µM, first compound 10 µM
[17] = second compound 0.1 µM, first compound 0.1 µM
[18] = second compound 0.1 µM, first compound 1 µM
[19] = second compound 0.1 µM, first compound 3.16 µM
[20] = second compound 0.1 µM, first compound 10 µM
[21] = second compound 0.316 µM, first compound 0.1 µM
[22] = second compound 0.316 µM, first compound 1 µM
[23] = second compound 0.316 µM, first compound 3.16 µM
[24] = second compound 0.316 µM, first compound 10 µM
[25] = second compound 1 µM, first compound 0.1 µM
[26] = second compound 1 µM, first compound 1 µM
[27] = second compound 1 µM, first compound 3.16 µM
[28] = second compound 1 µM, first compound 10 µM
[29] = second compound 3.16 µM, first compound 0.1 µM
[30] = second compound 3.16 µM, first compound 1 µM
[31] = second compound 3.16 µM, first compound 3.16 µM
[32] = second compound 3.16 µM, first compound 10 µM
[33] = second compound 10 µM, first compound 0.1 µM
[34] = second compound 10 µM, first compound 1 µM
[35] = second compound 10 µM, first compound 3.16 µM
[36] = second compound 10 µM, first compound 10 µM
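Also: spheroids exposed to compounds for 7 days before readout.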
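For viability, T/C in this document: percent of vehicle DMSO control viability with 100% = untreated-like growth.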

Cn1ncnc1[C@H]1c2n[nH]c(=O)c3cc(F)cc(c23)N[C@@H]1c1ccc(F)cc1 + Cc1[nH]c2ccc(F)cc2c1-c1nc2c3cccnc3c3ncccc3c2[nH]1
IC50 (second compound 0.0316 µM): > 0.316 µM
IC50 (second compound 0.1 µM): > 0.316 µM
IC50 (second compound 0.316 µM): > 0.316 µM
IC50 (second compound 1 µM): > 0.316 µM
IC50 (second compound 3.16 µM): > 0.316 µM
IC50 (second compound 10 µM): > 0.316 µM
viability, T/C (second compound 0.0316 µM, first compound 0.000999 µM): 95.8%
viability, T/C (second compound 0.0316 µM, first compound 0.00316 µM): 80.1%
viability, T/C (second compound 0.0316 µM, first compound 0.00999 µM): 96.7%
viability, T/C [1]: 88.1%
viability, T/C (second compound 0.0316 µM, first compound 0.0999 µM): 109%
viability, T/C [2]: 90.2%
viability, T/C (second compound 0.1 µM, first compound 0.000999 µM): 91.8%
viability, T/C (second compound 0.1 µM, first compound 0.00316 µM): 87.3%
viability, T/C (second compound 0.1 µM, first compound 0.00999 µM): 101%
viability, T/C [3]: 85.3%
viability, T/C (second compound 0.1 µM, first compound 0.0999 µM): 93.2%
viability, T/C [4]: 97.9%
viability, T/C (second compound 0.316 µM, first compound 0.000999 µM): 95.1%
viability, T/C (second compound 0.316 µM, first compound 0.00316 µM): 104%
viability, T/C (second compound 0.316 µM, first compound 0.00999 µM): 81.1%
viability, T/C [5]: 110%
viability, T/C (second compound 0.316 µM, first compound 0.0999 µM): 90.5%
viability, T/C [6]: 106%
viability, T/C (second compound 1 µM, first compound 0.000999 µM): 79.3%
viability, T/C (second compound 1 µM, first compound 0.00316 µM): 87.7%
viability, T/C (second compound 1 µM, first compound 0.00999 µM): 80.7%
viability, T/C [7]: 89.2%
viability, T/C (second compound 1 µM, first compound 0.0999 µM): 111%
viability, T/C [8]: 86%
viability, T/C (second compound 3.16 µM, first compound 0.000999 µM): 67.7%
viability, T/C (second compound 3.16 µM, first compound 0.00316 µM): 65.8%
viability, T/C (second compound 3.16 µM, first compound 0.00999 µM): 71.8%
viability, T/C [9]: 66.4%
viability, T/C (second compound 3.16 µM, first compound 0.0999 µM): 86.8%
viability, T/C [10]: 70.3%
viability, T/C (second compound 10 µM, first compound 0.000999 µM): 48.9%
viability, T/C (second compound 10 µM, first compound 0.00316 µM): 51.7%
viability, T/C (second compound 10 µM, first compound 0.00999 µM): 57.2%
viability, T/C [11]: 45%
viability, T/C (second compound 10 µM, first compound 0.0999 µM): 41.1%
viability, T/C [12]: 57.4%

CC1COCCN1c1cc(-c2ccnn2C)c2ccnc(-c3ccn[nH]3)c2n1 (stereo unspecified) + CN(C)c1ccc(Nc2c3ccc(NC(=O)CCN4CCCC4)cc3nc3cc(NC(=O)CCN4CCCC4)ccc23)cc1
IC50 (second compound 0.0316 µM): 0.612 µM
IC50 (second compound 0.1 µM): 0.717 µM
IC50 (second compound 0.316 µM): 0.48 µM
IC50 (second compound 1 µM): 0.559 µM
IC50 (second compound 3.16 µM): 1.08 µM
IC50 (second compound 10 µM): 0.745 µM
viability, T/C [1]: 86.5%
viability, T/C [13]: 88%
viability, T/C [2]: 61.9%
viability, T/C [14]: 40.6%
viability, T/C [15]: 34.6%
viability, T/C [16]: 26.5%
viability, T/C [3]: 91%
viability, T/C [17]: 75.7%
viability, T/C [4]: 67.1%
viability, T/C [18]: 41.7%
viability, T/C [19]: 32.8%
viability, T/C [20]: 24.8%
viability, T/C [5]: 82%
viability, T/C [21]: 65.4%
viability, T/C [6]: 56.8%
viability, T/C [22]: 38.3%
viability, T/C [23]: 38.5%
viability, T/C [24]: 26.4%
viability, T/C [7]: 79.1%
viability, T/C [25]: 101%
viability, T/C [8]: 67.3%
viability, T/C [26]: 36.7%
viability, T/C [27]: 32.6%
viability, T/C [28]: 27.8%
viability, T/C [9]: 84.5%
viability, T/C [29]: 74%
viability, T/C [10]: 67.4%
viability, T/C [30]: 48.6%
viability, T/C [31]: 38.6%
viability, T/C [32]: 26.7%
viability, T/C [11]: 85.1%
viability, T/C [33]: 75.4%
viability, T/C [12]: 64.1%
viability, T/C [34]: 42.7%
viability, T/C [35]: 38.6%
viability, T/C [36]: 29%

CC1COCCN1c1cc(C2(S(C)(=N)=O)CC2)nc(-c2ccnc3[nH]ccc23)n1 (stereo unspecified) + CN(C)c1ccc(Nc2c3ccc(NC(=O)CCN4CCCC4)cc3nc3cc(NC(=O)CCN4CCCC4)ccc23)cc1
IC50 (second compound 0.0316 µM): 8.45 µM
IC50 (second compound 0.1 µM): 6.78 µM
IC50 (second compound 0.316 µM): 6.09 µM
IC50 (second compound 1 µM): > 10 µM
IC50 (second compound 3.16 µM): > 10 µM
IC50 (second compound 10 µM): > 10 µM
viability, T/C [1]: 102%
viability, T/C [13]: 90.3%
viability, T/C [2]: 73%
viability, T/C [14]: 79.6%
viability, T/C [15]: 67.8%
viability, T/C [16]: 42.2%
viability, T/C [3]: 95.1%
viability, T/C [17]: 77.2%
viability, T/C [4]: 81.2%
viability, T/C [18]: 76.5%
viability, T/C [19]: 69.3%
viability, T/C [20]: 40.5%
viability, T/C [5]: 85.5%
viability, T/C [21]: 83.3%
viability, T/C [6]: 74.4%
viability, T/C [22]: 76.2%
viability, T/C [23]: 61.8%
viability, T/C [24]: 40.8%
viability, T/C [7]: 89.8%
viability, T/C [25]: 83.7%
viability, T/C [8]: 94.2%
viability, T/C [26]: 67.6%
viability, T/C [27]: 58.8%
viability, T/C [28]: 46.2%
viability, T/C [9]: 86%
viability, T/C [29]: 89.2%
viability, T/C [10]: 86.3%
viability, T/C [30]: 68.5%
viability, T/C [31]: 64.4%
viability, T/C [32]: 49.6%
viability, T/C [11]: 82.7%
viability, T/C [33]: 88.4%
viability, T/C [12]: 116%
viability, T/C [34]: 59.7%
viability, T/C [35]: 80%
viability, T/C [36]: 56%
